Data published in patent US10287267B2, “Isoquinolin-3-yl carboxamides and preparation and use thereof” (Samumed, LLC, priority 2016, dated 2019).

Key:
[1] = test system: Wnt pathway (Sp5-Luc reporter, TCF/LEF binding sites) in SW480 colon carcinoma cells; test: Screening assay for Wnt activity: Sp5-Luc reporter gene assay; format: cell-based, human; conditions: Homo sapiens; Sp5-Luc reporter, SW480 cells, 36 to 48 hours;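 further: firefly luciferase luminescence read in stably transduced SW480 cells carrying the Sp5 promoter reporter with eight TCF/LEF sites, compounds given in 0.1% DMSO final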
Description: The screening assay for Wnt activity is described as follows.
Following incubation, 15 μl of BriteLite Plus luminescence reagent (Perkin Elmer) was added to each well of the 384-well assay plates. The plates were placed on an orbital shaker for 2 min and then luminescence was quantified using the Envision (Perkin Elmer) plate reader.

[2] = molecular target: recombinant DYRK1A kinase (Homo sapiens (Human), UniProt Q13627); test: DYRK1A kinase assay (Ser/Thr 18 peptide Z-lyte FRET); format: biochemical; conditions: 30 μM ATP, 1 h room temperature;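 further: Read-out is the coumarin to fluorescein emission ratio, referenced to unphosphorylated (0%) and phosphorylated (100%) Ser/Thr 18 peptide controls, values from dose-response curves by non-linear regression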
recombinant GSK3β kinase = recombinant GSK3β kinase (Homo sapiens (Human), UniProt P49841); test: GSK3β kinase assay (Ser/Thr 09 peptide Z-lyte FRET); format: biochemical; conditions: 46 μM ATP, 1 h room temperature;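 further: kinase activity read as coumarin to fluorescein emission ratio, 11-point threefold dilutions from 10 µM to 0.0003 µM in duplicate, unphosphorylated and phosphorylated peptide as 0% and 100% controls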
recombinant GSK3β kinase, sequence (P49841 whole entry): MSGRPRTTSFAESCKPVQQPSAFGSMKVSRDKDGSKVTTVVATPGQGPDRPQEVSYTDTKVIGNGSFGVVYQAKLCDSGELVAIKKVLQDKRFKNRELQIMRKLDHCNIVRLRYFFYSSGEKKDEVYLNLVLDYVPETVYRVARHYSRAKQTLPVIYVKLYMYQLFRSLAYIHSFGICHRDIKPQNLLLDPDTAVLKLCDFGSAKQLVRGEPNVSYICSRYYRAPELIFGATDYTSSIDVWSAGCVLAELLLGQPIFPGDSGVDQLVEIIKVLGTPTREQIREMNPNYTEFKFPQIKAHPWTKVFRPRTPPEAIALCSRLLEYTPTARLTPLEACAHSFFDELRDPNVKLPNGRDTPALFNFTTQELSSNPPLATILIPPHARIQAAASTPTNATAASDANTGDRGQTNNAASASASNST

[3] = test system: Tau phosphorylation at Ser396 (pSer396); test: Tau phosphorylation assay (pSer396 ELISA / western blot) in SH-SY5Y cells; format: cell-based, human; conditions: Homo sapiens; SH-SY5Y cells, overnight (16-18 h) exposure; read-out: pSer396 Tau EC50;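 further: EC50 for reduction of Tau pSer396 in lysed cells, measured by colorimetric ELISA or chemiluminescent western blot, both using the same pSer396 antibody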
[4] = test system: SW480 colon carcinoma cells; test: Cell viability assay (CellTiter-Glo); format: cell-based, human; conditions: Homo sapiens, 96 h; SW480 cells, CellTiter-Glo, four days incubation
[5] = test system: α-smooth muscle actin (αSMA) positive LL29 cells; test: Inhibition of fibrotic process: αSMA in TGF-β1 treated primary human fibroblasts from IPF patients; format: cell-based; conditions: Homo sapiens, Fibroblast;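 further: controls were TGF-β1 stimulated wells with DMSO vehicle (positive) and cells given DMSO alone (negative), cultured in F12 medium with 1% fetal bovine serum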
IL-6 [6] = test: IL-6 inhibition in LPS-stimulated human peripheral blood mononuclear cells (HTRF); format: cell-based; conditions: Homo sapiens, PBMC; Table 9; huPBMCs, LPS 50 ng/mL, 22 hours; dose-response starting from 10 μM;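 further: IL-6 detected by HTRF with an XL665- and Cryptate-labelled anti-IL-6 antibody pair, samples run in duplicate, EC50 obtained from a four-parameter Levenberg-Marquardt curve fit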
Description: After 22 hour incubation, a mixture of anti-IL6 XL665 and anti-IL-6 Cryptate diluted in reconstitution buffer (Catalog #62IL6PEC, Cisbio Inc., Bedford, Mass.) was added to each well. […] All samples were processed in duplicate. […] EC50 was determined using software generated by Dotmatics Limited (Windhill Bishops Stortford Herts, UK) using the Levenberg-Marquardt 4 parameter fitting procedure with finite different gradients.

TNFα = test: Secreted cytokines in lipopolysaccharide-stimulated BV-2 mouse microglial cells: TNFα; format: cell-based; conditions: BV-2 cells, compounds overnight, LPS 250 ng/mL 5 h
Description: (§1) Representative compounds were screened using the cell-based assay procedure for secreted cytokines in a Lipopolysaccharide-stimulated mouse glial cell line described below.
(§2) BV-2 cells (mouse microglial cells) were cultured in 1:1 DMEM medium supplemented with 10% FBS, and 1% penicillin/streptomycin.
(§3) BV-2 cells are plated at 35,000 cells/well in a volume of 100 ul for at least 4 hours before compounds are added. DMSO-resuspended compounds were first dispensed in a 96 well plate and serial diluted from 10 μM to 4.6 nM final concentration in medium. Compounds were added to cells overnight. Two hundred fifty ng per milliliter of lipopolysaccharide (Escherichia coli O55:B5, SIGMA) was added for 5 h. Supernatant is removed and saved for further cytokine detection. The original plates with seeded cells were tested for cytotoxicity by measure of adenosine triphosphate (ATP) release by adding CellTiter-Glo® diluted 1:4 in distilled water (G7573, Promega) and transferring lysed cells to a completely black 96-well plate to be read with the Cytation3. Supernatant was then diluted 1:2 with a diluent from V-PLEX cytokine Kit and directly tested for the secreted cytokines TNFα, IL-6 and KC-GRO using electrochemiluminescence (Meso Scale Discovery). The standard curve for each cytokine was used to convert the electrochemiluminescent signal into pg of protein per mL.

IL-6 [7] = test: Secreted cytokines in lipopolysaccharide-stimulated BV-2 mouse microglial cells: IL-6; format: cell-based; conditions: Mus musculus; BV-2 cells, compounds overnight, LPS 250 ng/mL 5 h
Description: as §1, §2, §3

KC-GRO = test: Secreted cytokines in lipopolysaccharide-stimulated BV-2 mouse microglial cells: KC-GRO; format: cell-based; conditions: BV-2 cells, compounds overnight, LPS 250 ng/mL 5 h
Description: as §1, §2, §3

Q: Which results are given for `Cc1nnc(-c2ccc3cnc(NC(=O)C4CCN(CC(C)C)CC4)cc3c2)o1` [Compound 1020, 1-Isobutyl-N-(6-(5-methyl-1,3,4-oxadiazol-2-yl)isoquinolin-3-yl)piperidine-4-carboxamide]?
A: EC50 [1]: 1140 nM; EC50 [2]: 10.4 nM; EC50 (recombinant GSK3β kinase): 13 nM; EC50 [3]: 49 nM; EC50 [4]: 1030 nM; EC50 ([5]; 96 h, Table 8, LL29 fibroblasts from IPF patients, TGF-β1 20 ng/mL, 4 days, dose-response 10 μM to 0.94 nM): > 10000 nM; inhibition at 10 µM ([5]; read-out: percent value in parentheses beside EC50 >10 μM): 30.6%; EC50 (IL-6 [6]): 1180 nM; EC50 (TNFα): 597 nM; EC50 (IL-6 [7]): 87 nM; EC50 (KC-GRO): 708 nM
